Legend:
[1] = system: Rattus norvegicus; test: Anti-inflammatory activity in Rattus norvegicus Wistar albino (rat) assessed as inhibition of carrageenan-induced hind paw edema at 10 mg/kg, po measured at 3 hr relative to control; type: functional
[2] = system: Rattus norvegicus; test: Anti-inflammatory activity in Rattus norvegicus Wistar albino (rat) assessed as inhibition of carrageenan-induced hind paw edema at 10 mg/kg, po measured at 4 hr relative to control; type: functional
[3] = system: Rattus norvegicus; test: Analgesic activity in Rattus norvegicus Wistar albino (rat) at 20 mg/kg, ip measured at 30 min by tail immersion method relative to control; type: functional; conditions: route intraperitoneal
[4] = system: Rattus norvegicus; test: Ulcerogenic activity in Rattus norvegicus Wistar albino (rat) stomach assessed as ulcer index at 30 mg/kg, po measured after 17 hr relative to control; type: toxicity, organism-based; parameters: dose 30 mg/kg, route oral; conditions: in vivo
[5] = system: Rattus norvegicus; test: Antioxidant activity in Rattus norvegicus Wistar albino (rat) stomach assessed as decrease in malondialdehyde content measured per 100 mg of tissue at 30 mg/kg, po after 60 min by spectrophotometric analysis (reference value: 3.86 +/- 0.19 nmol); type: functional

## Cc1nn(-c2ccccc2)c(Cl)c1/C=N/NC(=O)c1ccc([N+](=O)[O-])cc1
[1]
  inhibition in vivo at 10 mg/kg: 12.1%
[2]
  inhibition in vivo at 10 mg/kg: 54.4%
[3]
  Activity: 92.8%

## Cc1nn(-c2ccccc2)c(Cl)c1/C=N/NC(=O)c1ccc(Cl)cc1Cl
[1]
  inhibition in vivo at 10 mg/kg: 51.5%
[2]
  inhibition in vivo at 10 mg/kg: 74.7%
[3]
  Activity: 172.6%

## Cc1nn(-c2ccccc2)c(Cl)c1/C=N/NC(=O)COc1ccccc1
[4]
  UI: 0.41

## Cc1nn(-c2ccccc2)c(Cl)c1/C=N/NC(=O)c1ccc(F)cc1
[1]
  inhibition in vivo at 10 mg/kg: 36.4%
[2]
  inhibition in vivo at 10 mg/kg: 67.1%
[3]
  Activity: 187.8%

## Cc1nn(-c2ccccc2)c(Cl)c1/C=N/NC(=O)c1ccc(Cl)cc1
[5]
  Activity: 4.51 nmol
[1]
  inhibition in vivo at 10 mg/kg: 42.4%
[2]
  inhibition in vivo at 10 mg/kg: 63.3%
[4]
  UI: 0.25
[3]
  Activity: 160.4%

## Cc1nn(-c2ccccc2)c(Cl)c1/C=N/NC(=O)Cc1cccc2ccccc12
[1]
  inhibition in vivo at 10 mg/kg: 42.4%
[2]
  inhibition in vivo at 10 mg/kg: 55.7%
[3]
  Activity: 116.3%

## Cc1nn(-c2ccccc2)c(Cl)c1/C=N/NC(=O)Cc1ccc(Cl)cc1
[1]
  inhibition in vivo at 10 mg/kg: 57.6%
[2]
  inhibition in vivo at 10 mg/kg: 70.9%
[3]
  Activity: 193.1%

## Cc1nn(-c2ccccc2)c(Cl)c1/C=N/NC(=O)c1ccccc1Cl
[3]
  Activity: 149%

## Cc1nn(-c2ccccc2)c(Cl)c1/C=N/NC(=O)c1ccc(Br)cc1
[3]
  Activity: 158.7%

## O=C(O)Cc1ccccc1Nc1c(Cl)cccc1Cl [DICLOFENAC]
[3]
  Activity: 749.3%

## COc1ccc2c(c1)c(CC(=O)O)c(C)n2C(=O)c1ccc(Cl)cc1 [INDOMETHACIN]
[5]
  Activity: 21.98 nmol
[1]
  inhibition in vivo at 10 mg/kg: 48.5%
[2]
  inhibition in vivo at 10 mg/kg: 77.2%
[4]
  UI: 4.5

— ChEMBL document CHEMBL3045791, “Pharmacological screening for anti-inflammatory, analgesic activity of pyrazolyl derivatives along with molecular docking studies” (Med Chem Res, 2012)
